Where a name gives a salt, the structure may show the parent alone.

This test has as its system ICR CD strain male mice. Put plainly: Gastric emptying enhancing activity (phenol red meal). The format is in vivo. To be noted: Mus musculus, ip, 0.25 h, 3.0 mg/kg i.p., gastric emptying at 15 min after test meal, increase vs vehicle. On the procedure:
ICR CD strain male mice (body weight, 25˜30 g; 8 mice per one group) were fasted for 24 h but allowed free access to water until 3 hours before the test.
Compounds to be tested for promoting GI motility were injected intraperitoneally or given orally at 30 min or 60 min prior to phenol red meal administration. Fifteen (15) min after administration of a test meal (0.5% Phenol red in 1.5% methylcellulose solution), mice were sacrificed and the stomach (pylorus˜cardia) was removed and collected to vial. The stomach was homogenized with its contents in 0.1N NaOH and the mixture was centrifuged (700*g) for 20 min. 2.5 mL of the supernatant was added to 0.25 mL of trichloroacetic acid solution (20% w/v) to precipitate proteins. After centrifuging (2600*g) for 20 min, 0.5 mL of the supernatant was added to 0.25 mL of 1N NaOH. The mixture was homogenized and its absorbance (Abs) was read at 560 nm.
In each experiment, one group was sacrificed just after the administration of the test meal and was considered as a standard (0% emptying). The gastric emptying (GE) at the 15 min period was calculated according to the following formula. GE (%)=(1−Abstest/Absstandard)×100 Increase (%)=(GE %test−GE %vehicle)/GE %vehicle*100

`COc1cc(N)c(Cl)cc1C(=O)NCC1CCN(CCC(NC(=O)O)c2ccccc2)CC1` (stereo not drawn) [Example 53, [3-[4-[[(4-amino-5-chloro-2-methoxybenzoyl)amino]methyl]piperidin-1-yl]-1-phenylpropyl]carbamate; hydrochloride]: the change in vivo at 3 mg/kg is 28.4%. With `COc1cc(N)c(Cl)cc1C(=O)NCC1CCN(CCC(NC(=O)O)c2ccc(F)cc2)CC1` (stereo not drawn) [Example 54, [3-[4-[[(4-amino-5-chloro-2-methoxybenzoyl)amino]methyl]piperidin-1-yl]-1-(4-fluorophenyl)propyl]carbamate; hydrochloride], the change in vivo at 3 mg/kg is 89.2%. Consider `COc1cc(N)c(Cl)cc1C(=O)NCC1CCN(CCC(NC(=O)O)c2ccccc2Cl)CC1` (stereo not drawn) [Example 56, [3-[4-[[(4-amino-5-chloro-2-methoxybenzoyl)amino]methyl]piperidin-1-yl]-1-(2-chlorophenyl)propyl]carbamate; hydrochloride], for which the change in vivo at 3 mg/kg is 135%. Regarding `COc1cc(N)c(Cl)cc1C(=O)NCC1CCN(CCC(NC(=O)O)c2cccc(Cl)c2Cl)CC1` (stereo not drawn) [Example 59, [3-[4-[[(4-amino-5-chloro-2-methoxybenzoyl)amino]methyl]piperidin-1-yl]-1-(2,3-dichlorophenyl)propyl]carbamate; hydrochloride], the change in vivo at 3 mg/kg came out at 48%. With `COc1cc(N)c(Cl)cc1C(=O)NCC1CCN(CCC(NC(=O)O)c2ccc(Cl)cc2Cl)CC1` (stereo not drawn) [Example 60, [3-[4-[[(4-amino-5-chloro-2-methoxybenzoyl)amino]methyl]piperidin-1-yl]-1-(2,4-dichlorophenyl)propyl]carbamate; hydrochloride], the change in vivo at 3 mg/kg was determined as 14.2%. `COc1cc(N)c(Cl)cc1C(=O)NCC1CCN(CCC(NC(=O)O)c2ccc(Cl)c(Cl)c2)CC1` (stereo not drawn) [Example 61, [3-[4-[[(4-amino-5-chloro-2-methoxybenzoyl)amino]methyl]piperidin-1-yl]-1-(3,4-dichlorophenyl)propyl]carbamate; hydrochloride]: the change in vivo at 3 mg/kg was determined as 44.3%.

In the case of `COc1cc(N)c(Cl)cc1C(=O)NCC1CCN(CCC(NC(=O)O)c2ccc(C(C)C)cc2)CC1` (stereo not drawn) [Example 62, [3-[4-[[(4-amino-5-chloro-2-methoxybenzoyl)amino]methyl]piperidin-1-yl]-1-(4-isopropylphenyl)propyl]carbamate; hydrochloride], the change in vivo at 3 mg/kg was 17.9%. Regarding `COc1cccc(C(CCN2CCC(CNC(=O)c3cc(Cl)c(N)cc3OC)CC2)NC(=O)O)c1` (stereo not drawn) [Example 63, [3-[4-[[(4-amino-5-chloro-2-methoxybenzoyl)amino]methyl]piperidin-1-yl]-1-(3-methoxyphenyl)propyl]carbamate; hydrochloride], the change in vivo at 3 mg/kg amounted to 24.4%. For the compound `COc1cc(N)c(Cl)cc1C(=O)NCC1CCN(CCC(Cc2ccc(F)cc2)NC(=O)O)CC1` (stereo not drawn) [Example 65, [4-[4-[[(4-amino-5-chloro-2-methoxybenzoyl)amino]methyl]piperidin-1-yl]-1-(4-fluorophenyl)butan-2-yl]carbamate; hydrochloride], the change in vivo at 3 mg/kg came out at 93.1%. For `COc1cc(N)c(Cl)cc1C(=O)NCC1CCN(CC(O)COc2ccccc2)CC1` (stereo not drawn) [Example 71, 4-amino-5-chloro-N-[[1-(2-hydroxy-3-phenoxypropyl)piperidin-4-yl]methyl]-2-methoxybenzamide; hydrochloride] the value was 63.7%; for `COc1cc(N)c(Cl)cc1C(=O)NCC1CCN(CC(O)COc2ccc(F)cc2)CC1` (stereo not drawn) [Example 72, 4-amino-5-chloro-N-[[1-[3-(4-fluorophenoxy)-2-hydroxypropyl]piperidin-4-yl]methyl]-2-methoxybenzamide; hydrochloride], 48.1%; for `COc1ccc(OCC(O)CN2CCC(CNC(=O)c3cc(Cl)c(N)cc3OC)CC2)cc1` (stereo not drawn) [Example 74, 4-amino-5-chloro-N-[[1-[2-hydroxy-3-(4-methoxyphenoxy)propyl]piperidin-4-yl]methyl]-2-methoxybenzamide; hydrochloride], 46.7%. In the case of `COc1cc(N)c(Cl)cc1C(=O)NCC1CCN(CC(O)COc2ccc(C(F)(F)F)cc2)CC1` (stereo not drawn) [Example 83, 4-amino-5-chloro-N-[[1-[2-hydroxy-3-[4-(trifluoromethyl)phenoxy]propyl]piperidin-4-yl]methyl]-2-methoxybenzamide; hydrochloride] it was 42.5%; in that of `COc1cc(N)c(Cl)cc1C(=O)NCC1CCN(CC(COc2ccccc2)OC(=O)N2CCCCC2)CC1` (stereo not drawn) [Example 88, [1-[4-[[(4-amino-5-chloro-2-methoxybenzoyl)amino]methyl]piperidin-1-yl]-3-phenoxypropan-2-yl]piperidine-1-carboxylate; hydrochloride], 44.1%. On to `COc1cc(N)c(Cl)cc1C(=O)NCC1CCN(CC(COc2ccc(F)cc2)OC(=O)N2CC(C)CC(C)C2)CC1` (stereo not drawn) [Example 89, [1-[4-[[(4-amino-5-chloro-2-methoxybenzoyl)amino]methyl]piperidin-1-yl]-3-(4-fluorophenoxy)propan-2-yl]3,5-dimethylpiperidine-1-carboxylate; hydrochloride], for which the change in vivo at 3 mg/kg was 45.3%. In the case of `COc1cc(N)c(Cl)cc1C(=O)NCC1CCN(CC(COc2ccc(Cl)cc2Cl)NC(=O)O)CC1` (stereo not drawn) [Example 96, [1-[4-[[(4-amino-5-chloro-2-methoxybenzoyl)amino]methyl]piperidin-1-yl]-3-(2,4-dichlorophenoxy)propan-2-yl]carbamate; hydrochloride] it was 105%; in that of `COc1cc(N)c(Cl)cc1C(=O)NCC1CCN(CC(COc2c(Cl)cccc2Cl)NC(=O)O)CC1` (stereo not drawn) [Example 98, [1-[4-[[(4-amino-5-chloro-2-methoxybenzoyl)amino]methyl]piperidin-1-yl]-3-(2,6-dichlorophenoxy)propan-2-yl]carbamate; hydrochloride], 63.6%. In the case of `COc1cc(N)c(Cl)cc1C(=O)NCC1CCN(CC(COc2ccc(Cl)c(Cl)c2)NC(=O)O)CC1` (stereo not drawn) [Example 99, [1-[4-[[(4-amino-5-chloro-2-methoxybenzoyl)amino]methyl]piperidin-1-yl]-3-(3,4-dichlorophenoxy)propan-2-yl]carbamate; hydrochloride] it was 47.5%; in that of `COc1cc(N)c(Cl)cc1C(=O)NCC1CCN(CC(COc2ccc(C(F)(F)F)cc2)NC(=O)O)CC1` (stereo not drawn) [Example 100, [1-[4-[[(4-amino-5-chloro-2-methoxybenzoyl)amino]methyl]piperidin-1-yl]-3-[4-(trifluoromethyl)phenoxy]propan-2-yl]carbamate; hydrochloride], 46.1%; in that of `COc1cc(N)c(Cl)cc1C(=O)NCC1CCN(CC(Cc2ccccc2)NC(=O)O)CC1` (stereo not drawn) [Example 103, [1-[4-[[(4-amino-5-chloro-2-methoxybenzoyl)amino]methyl]piperidin-1-yl]-3-phenylpropan-2-yl]carbamate; hydrochloride], 88.8%. In the case of `CC(C)n1c(=O)n(C(=O)NCC2CCN(CC(O)COc3ccccc3)CC2)c2ccccc21` (stereo not drawn) [Example 104, N-[[1-(2-hydroxy-3-phenoxypropyl)piperidin-4-yl]methyl]-2-oxo-3-propan-2-ylbenzimidazole-1-carboxamide; hydrochloride] it was 81%; in that of `Cn1c(=O)n(C(=O)NCC2CCN(CC(O)COc3ccccc3)CC2)c2ccccc21` (stereo not drawn) [Example 111, N-[[1-(2-hydroxy-3-phenoxypropyl)piperidin-4-yl]methyl]-3-methyl-2-oxobenzimidazole-1-carboxamide; hydrochloride], 37.2%; in that of `COc1ccc(OCC(CN2CCC(CNC(=O)n3c(=O)n(C(C)C)c4ccccc43)CC2)NC(=O)O)cc1` (stereo not drawn) [Example 121, [1-(4-methoxyphenoxy)-3-[4-[[(2-oxo-3-propan-2-ylbenzimidazole-1-carbonyl)amino]methyl]piperidin-1-yl]propan-2-yl]carbamate; hydrochloride], 46.8%. As to `CC(C)n1c(=O)n(C(=O)NCC2CCN(CC(COc3ccc(F)cc3)NC(=O)O)CC2)c2ccccc21` (stereo not drawn) [Example 122, [1-(4-fluorophenoxy)-3-[4-[[(2-oxo-3-propan-2-ylbenzimidazole-1-carbonyl)amino]methyl]piperidin-1-yl]propan-2-yl]carbamate; hydrochloride], the change in vivo at 3 mg/kg is 6.8%. In the case of `Cc1ccccc1OCC(CN1CCC(CNC(=O)n2c(=O)n(C(C)C)c3ccccc32)CC1)NC(=O)O` (stereo not drawn) [Example 123, [1-(2-methylphenoxy)-3-[4-[[(2-oxo-3-propan-2-ylbenzimidazole-1-carbonyl)amino]methyl]piperidin-1-yl]propan-2-yl]carbamate; hydrochloride] it was 56.8%. Turning to `Cn1c(=O)n(C(=O)NCC2CCN(CC(COc3ccccc3)NC(=O)O)CC2)c2ccccc21` (stereo not drawn) [Example 126, [1-[4-[[(3-methyl-2-oxobenzimidazole-1-carbonyl)amino]methyl]piperidin-1-yl]-3-phenoxypropan-2-yl]carbamate; hydrochloride], the change in vivo at 3 mg/kg amounted to 93.3%. For the compound `O=C(NCC1CCN(CCC(O)c2ccccc2)CC1)n1c(=O)n(C2CC2)c2ccccc21` (stereo not drawn) [Example 135, 3-cyclopropyl-N-[[1-(3-hydroxy-3-phenylpropyl)piperidin-4-yl]methyl]-2-oxobenzimidazole-1-carboxamide; hydrochloride], the change in vivo at 3 mg/kg is 90.3%.

Source of the values: patent publication US10144709B2, “Piperidine compounds, pharmaceutical composition comprising the same and its use” (SK BIOPHARMACEUTICALS CO., LTD., priority 2008, dated 2018).
